Test results reported in article PMC11969009 (Nature Communications, 2025).
Several values for one entry are separate records, joined by “and”; a condition that tells them apart may be missing. Equal values may be shown once. Read-outs that look alike come from different tables or passages of the source.

Key:
MERS-CoV PLpro = MERS-CoV PLpro (Middle East respiratory syndrome-related coronavirus, UniProt K9N7C7); format: biochemical; set-up: unit: %
HKU1 PLpro = HKU1 PLpro (Human coronavirus HKU1, UniProt P0C6X2); experiment: biochemical; format: biochemical; set-up: inhibition of HKU1 PLpro, UbRh dose-response replicate value: unit: %
SARS-CoV-2 PLpro = SARS-CoV-2 PLpro (Severe acute respiratory syndrome coronavirus 2, UniProt P0DTD1); experiment: biochemical; set-up: inhibition of SARS-CoV-2 PLpro, UbRh dose-response replicate value: unit: %
OC43 PLpro = OC43 PLpro (Human coronavirus OC43, UniProt P0C6X6); format: biochemical; set-up: unit not given here
Chain of OC43 PLpro (P0C6X6 1561-1872 limits assumed): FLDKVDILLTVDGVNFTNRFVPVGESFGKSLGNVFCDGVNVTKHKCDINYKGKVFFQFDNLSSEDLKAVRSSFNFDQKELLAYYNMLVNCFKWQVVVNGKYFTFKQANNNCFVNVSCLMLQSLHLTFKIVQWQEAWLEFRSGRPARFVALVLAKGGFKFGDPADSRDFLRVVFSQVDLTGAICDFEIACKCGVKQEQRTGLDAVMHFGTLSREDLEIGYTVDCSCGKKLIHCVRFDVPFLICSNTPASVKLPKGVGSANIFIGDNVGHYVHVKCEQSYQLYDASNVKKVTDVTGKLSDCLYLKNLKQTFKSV

Chain of MERS-CoV PLpro (K9N7C7 1482-1803 limits assumed): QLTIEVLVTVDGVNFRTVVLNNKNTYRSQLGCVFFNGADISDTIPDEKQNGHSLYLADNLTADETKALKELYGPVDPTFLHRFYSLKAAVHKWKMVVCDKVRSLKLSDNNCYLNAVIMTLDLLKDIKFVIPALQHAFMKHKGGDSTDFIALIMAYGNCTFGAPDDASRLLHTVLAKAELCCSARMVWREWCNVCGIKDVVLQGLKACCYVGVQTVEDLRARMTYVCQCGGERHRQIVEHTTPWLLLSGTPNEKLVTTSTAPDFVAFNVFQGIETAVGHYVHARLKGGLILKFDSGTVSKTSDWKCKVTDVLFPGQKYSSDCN
Chain of HKU1 PLpro (P0C6X2 1648-1958 limits assumed): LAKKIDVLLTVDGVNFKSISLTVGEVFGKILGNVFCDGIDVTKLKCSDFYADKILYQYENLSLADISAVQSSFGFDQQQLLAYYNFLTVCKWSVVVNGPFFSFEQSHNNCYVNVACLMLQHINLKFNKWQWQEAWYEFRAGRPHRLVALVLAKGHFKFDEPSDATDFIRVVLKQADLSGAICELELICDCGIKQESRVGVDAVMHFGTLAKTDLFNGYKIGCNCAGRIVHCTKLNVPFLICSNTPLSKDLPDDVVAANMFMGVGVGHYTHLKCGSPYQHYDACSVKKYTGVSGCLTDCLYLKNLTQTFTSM

## CO/N=C(/c1ccc2cc(OC)ccc2c1)[C@@H]1CCCN([C@H]2CC[C@@H](O)CC2)C1 [WEHI-P4]
MERS-CoV PLpro; Conc 0.00498 µM
  inhibition of MERS-CoV PLpro, UbRh dose-response replicate value: 2.537 and 1.088 and 4.818 and -0.3578
MERS-CoV PLpro; Conc 0.0149 µM
  inhibition of MERS-CoV PLpro, UbRh dose-response replicate value: 0.4714 and 1.45 and -3.026 and -3.057
MERS-CoV PLpro; Conc 0.0448 µM
  inhibition of MERS-CoV PLpro, UbRh dose-response replicate value: 0.04351 and -1.536 and 0.7971 and -3.294
MERS-CoV PLpro; Conc 3.63 µM
  inhibition of MERS-CoV PLpro, UbRh dose-response replicate value: -1.9557 and -1.916 and -5.199 and -5.618
MERS-CoV PLpro; Conc 98 µM
  inhibition of MERS-CoV PLpro, UbRh dose-response replicate value: -3.229 and -4.988 and -1.6159 and -4.525
HKU1 PLpro
  inhibition of HKU1 PLpro, UbRh dose-response replicate value: 1.705 and -0.1054 and 2.2991 and 4.234 and 8.121 and -2.271 and 3.812 and 1.385 and 5.008 and 9.904 and 4.3232 and 13.1694 and 12.2718 and 4.484 and 1.663 and 12.2999 and 8.634 and 4.883 and 1.702 and 14.2701
HKU1 PLpro; Conc 0.00498 µM
  inhibition of HKU1 PLpro, UbRh dose-response replicate value: 10.7444 and 9.596 and 9.063
HKU1 PLpro; Conc 0.00498 µM, read-out: inhibition of HKU1 PLpro, UbRh dose-response replicate value
  inhibition at 0.00498 µM: 6.7%
HKU1 PLpro; Conc 0.0149 µM
  inhibition of HKU1 PLpro, UbRh dose-response replicate value: 6.961 and -0.5687 and 9.316 and 1.404
HKU1 PLpro; Conc 0.0448 µM
  inhibition of HKU1 PLpro, UbRh dose-response replicate value: 2.999 and 18.114 and 6.887 and 6.926
HKU1 PLpro; Conc 3.63 µM
  inhibition of HKU1 PLpro, UbRh dose-response replicate value: -1.799 and 2.922 and 4.67 and 5.455
HKU1 PLpro; Conc 98 µM
  inhibition of HKU1 PLpro, UbRh dose-response replicate value: -6.574 and 1.985 and 4.593 and -1.2047
SARS-CoV-2 PLpro; Conc 0.000249 µM
  inhibition of SARS-CoV-2 PLpro, UbRh dose-response replicate value: -6.989 and -6.2311 and -15.3901 and -12.0234 and -3.121 and 2.182 and 11.6978 and 1.819
SARS-CoV-2 PLpro; Conc 0.000745 µM
  inhibition of SARS-CoV-2 PLpro, UbRh dose-response replicate value: -5.473 and -5.949 and -17.0454 and -10.682
SARS-CoV-2 PLpro; Conc 0.000747 µM
  inhibition of SARS-CoV-2 PLpro, UbRh dose-response replicate value: 12.1399 and 17.4092 and 12.0617
SARS-CoV-2 PLpro; Conc 0.000747 µM, read-out: inhibition of SARS-CoV-2 PLpro, UbRh dose-response replicate value
  inhibition at 0.000747 µM: 8.73%
SARS-CoV-2 PLpro; Conc 0.00498 µM
  inhibition of SARS-CoV-2 PLpro, UbRh dose-response replicate value: -1.775 and 0.6518 and -0.6615 and -14.6544
SARS-CoV-2 PLpro; Conc 0.00675 µM
  inhibition of SARS-CoV-2 PLpro, UbRh dose-response replicate value: 22.4234 and 17.1978 and 22.0771
SARS-CoV-2 PLpro; Conc 0.00675 µM, read-out: inhibition of SARS-CoV-2 PLpro, UbRh dose-response replicate value
  inhibition at 0.00675 µM: 23.8%
SARS-CoV-2 PLpro; Conc 0.0149 µM
  inhibition of SARS-CoV-2 PLpro, UbRh dose-response replicate value: 22.1269 and 15.6043 and 12.3348
SARS-CoV-2 PLpro; Conc 0.0149 µM, read-out: inhibition of SARS-CoV-2 PLpro, UbRh dose-response replicate value
  inhibition at 0.0149 µM: 20.2%
SARS-CoV-2 PLpro; Conc 0.0448 µM
  inhibition of SARS-CoV-2 PLpro, UbRh dose-response replicate value: 70.4961 and 67.8098 and 82.9795
SARS-CoV-2 PLpro; Conc 0.0448 µM, read-out: inhibition of SARS-CoV-2 PLpro, UbRh dose-response replicate value
  inhibition at 0.0448 µM: 69.6%
SARS-CoV-2 PLpro; Conc 0.545 µM
  inhibition of SARS-CoV-2 PLpro, UbRh dose-response replicate value: 96.1218 and 96.9708 and 96.4204 and 99.1563 and 99.6768 and 97.5259 and 100.026
SARS-CoV-2 PLpro; Conc 0.545 µM, read-out: inhibition of SARS-CoV-2 PLpro, UbRh dose-response replicate value
  inhibition at 0.545 µM: 94.8%
SARS-CoV-2 PLpro; Conc 1.63 µM
  inhibition of SARS-CoV-2 PLpro, UbRh dose-response replicate value: 99.7919 and 99.9266 and 100.674
SARS-CoV-2 PLpro; Conc 1.63 µM, read-out: inhibition of SARS-CoV-2 PLpro, UbRh dose-response replicate value
  inhibition at 1.63 µM: 99.9%
SARS-CoV-2 PLpro; Conc 1.64 µM
  inhibition of SARS-CoV-2 PLpro, UbRh dose-response replicate value: 100.528 and 98.3984 and 97.5602
SARS-CoV-2 PLpro; Conc 1.64 µM, read-out: inhibition of SARS-CoV-2 PLpro, UbRh dose-response replicate value
  inhibition at 1.64 µM: 101%
SARS-CoV-2 PLpro; Conc 3.63 µM
  inhibition of SARS-CoV-2 PLpro, UbRh dose-response replicate value: 107.19 and 107.537 and 118.551
SARS-CoV-2 PLpro; Conc 3.63 µM, read-out: inhibition of SARS-CoV-2 PLpro, UbRh dose-response replicate value
  inhibition at 3.63 µM: 108%
SARS-CoV-2 PLpro; Conc 4.9 µM
  inhibition of SARS-CoV-2 PLpro, UbRh dose-response replicate value: 99.5845 and 98.2639 and 99.0831 and 98.0118 and 99.4255 and 97.4945 and 99.077
SARS-CoV-2 PLpro; Conc 4.9 µM, read-out: inhibition of SARS-CoV-2 PLpro, UbRh dose-response replicate value
  inhibition at 4.9 µM: 99.1%
SARS-CoV-2 PLpro; Conc 98 µM
  inhibition of SARS-CoV-2 PLpro, UbRh dose-response replicate value: 106.984 and 107.551 and 120.253
SARS-CoV-2 PLpro; Conc 98 µM, read-out: inhibition of SARS-CoV-2 PLpro, UbRh dose-response replicate value
  inhibition at 98 µM: 107%
SARS-CoV-2 PLpro; IC50 (UbRh) SARS-CoV-2 PLpro, Supplementary Fig. 2b
  IC50: 32 nM
SARS-CoV-2 PLpro; read-out: inhibition of SARS-CoV-2 PLpro, UbRh dose-response replicate value
  inhibition at […]: 93.6% and 81.4% and 107% (2×) and 108% and 105% and 99.2% and 92.6%
OC43 PLpro
  inhibition of OC43 PLpro, UbRh dose-response replicate value: -2.257 and 2.5807 and 4.868 and -0.1188 and -1.486 and 1.4475 and 10.2923 and 5.639 and 2.747 and 1.253 and 10.74 and 6.439 and 0.2359 and 1.058 and 1.648 and 0.7875 and 3.338 and 4.936 and 12.7203 and 5.2479
OC43 PLpro; Conc 0.00498 µM
  inhibition of OC43 PLpro, UbRh dose-response replicate value: -1.019 and 4.2451 and 4.799 and 3.755
OC43 PLpro; Conc 0.0149 µM
  inhibition of OC43 PLpro, UbRh dose-response replicate value: 3.285 and -5.104 and 7.176 and 0.6631
OC43 PLpro; Conc 0.0448 µM
  inhibition of OC43 PLpro, UbRh dose-response replicate value: 1.599 and 3.82 and 6.435 and 3.684
OC43 PLpro; Conc 3.63 µM
  inhibition of OC43 PLpro, UbRh dose-response replicate value: -4.48 and 0.0664 and 5.368 and 1.321
OC43 PLpro; Conc 98 µM
  inhibition of OC43 PLpro, UbRh dose-response replicate value: 8.342 and 5.591 and 3.318 and 3.826
